# Data as given in doi:10.1101/2022.06.02.493408v1 (biorxiv, 2022).
# Biological target: T1, WT BetP (AMP-BetP) (Corynebacterium glutamicum, UniProt P54582)
# T1 sequence (P54582 1-595): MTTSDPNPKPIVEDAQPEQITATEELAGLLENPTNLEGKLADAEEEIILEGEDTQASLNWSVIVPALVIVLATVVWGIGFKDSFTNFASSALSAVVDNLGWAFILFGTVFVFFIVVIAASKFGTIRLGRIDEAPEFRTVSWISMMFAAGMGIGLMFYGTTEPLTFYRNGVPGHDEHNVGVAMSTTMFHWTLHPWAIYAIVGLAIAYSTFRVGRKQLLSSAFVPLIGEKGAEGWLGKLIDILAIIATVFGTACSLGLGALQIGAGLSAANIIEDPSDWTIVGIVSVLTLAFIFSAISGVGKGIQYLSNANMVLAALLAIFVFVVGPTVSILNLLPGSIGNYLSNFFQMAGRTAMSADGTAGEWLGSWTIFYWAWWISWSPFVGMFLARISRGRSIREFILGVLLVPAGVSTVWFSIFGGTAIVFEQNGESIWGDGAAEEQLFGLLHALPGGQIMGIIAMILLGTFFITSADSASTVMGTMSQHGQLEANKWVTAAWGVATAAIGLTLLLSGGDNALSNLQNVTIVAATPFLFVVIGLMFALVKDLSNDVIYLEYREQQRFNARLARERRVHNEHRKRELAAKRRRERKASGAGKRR
# Experiment: biochemical
smiles,measurement,value
C[N+](C)(C)CC(=O)[O-] [betaine],Kd,188 ± 34 µM
